Tests used:
plant = assay: Growth and production of plants exposed to the volatile; type: in vivo
[1] = test system: PR1 (marker gene for the salicylic acid signaling pathway); assay: Transcriptional response of defense gene PR1 in tomato plants exposed to volatiles (laboratory); type: in vivo, Solanum lycopersicum cv. Moneymaker; conditions: intact tomato plants exposed 24 h; filter paper, 1:10,000 ester:methanol; n=8
Protocol: (§1) Moneymaker tomato plants were used. Two weeks after seed germination, the seedlings were individually transplanted into pots (8×8×8 cm). The plants were kept at 25±2° C., with a constant relative humidity of 65%±5% and a 14:10 h (light:dark) photoperiod. Tomato plants that had not received any pesticide treatment at four weeks of age (about 20 cm tall) were used. All volatiles used were obtained from Sigma-Aldrich (St. Louis, Mo., USA). Each volatile was exposed by using a 2×2 cm piece of filter paper on which 10 μl of a solution containing the corresponding volatile at a concentration of 1:10,000 [(Z)-3-hexenyl ester:methanol] was impregnated as an emitting source of the corresponding volatile (Pérez-Hedo, M. et al. Biocontrol, 63: 203-213 (2018)).
(§2) To activate a plant, two pieces of filter paper impregnated with the volatile were placed at the bottom of a 30×30×30 cm plastic cage (BugDorm-1 Insect Tents; MegaView Science Co., Ltd, Taichung, Taiwan) into which the plant was introduced. A control treatment was carried out in which the two pieces of filter paper were impregnated with 10 μl of methanol. Eight repetitions per treatment were performed. The plants of the treatments were kept exposed to the volatile without disturbing for 24 hours in separate and isolated climatic chambers to avoid any interference from the volatiles and were kept at 25±2° C., 65±10% RH, and a 14:10 h (L:D) photoperiod. […]
(§3) The methodology followed for extracting and quantifying gene expression was described by Pérez-Hedo et al. Journal of Pest Science 3: 543-554 (2015). The primers used were forward primer: 5′-[…]-3′ (SEQ ID NO: 1) and reverse primer: 5′-[…]-3′ (SEQ ID NO: 2) for the quantification of PR1, forward primer: 5′-[…]-3′ (SEQ ID NO: 3) and reverse primer: 5′-[…]-3′ (SEQ ID NO: 4) for SI-PI-I, and forward primer: 5′-[…]-3′ (SEQ ID NO: 5) and reverse primer: 5′-[…]-3′ (SEQ ID NO: 6) for the SI-PI-II gene. […]

[2] = test system: SI-PI-II (marker for plant proteinase inhibitors); assay: Transcriptional response of SI-PI-II in tomato plants exposed to volatiles (laboratory); type: in vivo, Solanum lycopersicum cv. Moneymaker; conditions: intact tomato plants exposed 24 h; filter paper, 1:10,000 ester:methanol; n=8
Protocol: as §1, §2, §3

Tuta absoluta = assay: Laying of Tuta absoluta on exposed tomato plants; type: in vivo; conditions: T. absoluta, 72 hours; permanent exposure
Protocol: It was also studied whether the defensive activation induced by exposure to (Z)-3-hexenyl propanoate could influence the development of two highly important phytophages in tomato cultivation, the red spider, T. urticae, and the lepidoptera T. absoluta. The individuals used in these experiments came from the captive breeding of these species that are kept in the IVIA described above. The exposure time of the plant to the volatile was tested on both phytophages in two different ways, one where the plant was only exposed to the volatile for 24 hours and then the herbivore to be assayed was immediately released, and the other where the volatile was permanently exposed throughout the experiment.
For this purpose, two climatic chambers were used under the same environmental conditions [25±2° C., 65±5% HR and 14:10 h (L:D) photoperiod], wherein, to avoid interference between the volatiles, one was assigned to the (Z)-3-hexenyl propanoate treatments and one to the control treatment. […]
Two consecutive experiments were performed to assess the effect of exposure to both volatiles on T. absoluta. […] The laying of T. absoluta was assessed in 8 tomato plants (cv. Moneymaker) per treatment. […] After this time, T. absoluta adults were removed, and the number of eggs was counted.

For `CC/C=C\CCOC(=O)CC` [(Z)-3-hexenyl propanoate], the “Growth or production of the plant” value (plant) was “does not reduce the growth or production of the plant”, the “Transcriptional response of PR1 compared to the control” value [1] was “significantly overexpressed” and the “Transcriptional response of SI-PI-II compared to the control” value [2] was “significantly overexpressed”. For the same compound, the “Reduction in laying compared to the control” value (Tuta absoluta) was 67.2±15.0%.

From patent US20230240290A1, “USE OF (Z)-3-HEXENYL ESTERS AND METHOD FOR PROTECTING PLANTS AGAINST PESTS” (UNIVERSITAT POLITÈCNICA DE VALÈNCIA, priority 2020, published 2023)
